These results are taken from patent US4109081A, “1-(3,5-Disubstituted-2,4,6-triiodophenyl)-3-(polyhydroxy-alkyl)urea compounds” (Mallinckrodt, Inc., priority 1975, dated 1978).

Converted amounts (≈) assume the structure as drawn. Where two headings read alike, the source gives them in different places.

A short description of series [1]: aqueous solubility (solubility of the product in water). Format: physicochemical.
Series [2] has as its system Swiss Albino mice. The experiment in a line: Intracerebral Toxicity in Mice. Format: in vivo, mouse (Swiss Albino, Charles River). As to conditions: intracerebral injection, seven day observation; Example IV at 4.3% iodine, Example V at 13.3% iodine. How it is done:
(§1) carried out in aqueous solutions of the compounds of Examples IV and V.
Swiss Albino mice (charles River) were used. Fixed volumes of aqueous solutions of the iodinated compounds were injected intracerebrally via a 27 gauge needle (1/4 inch in length) according to the method of Haley et al. (Br. J. of Pharmac. 12:12-15, 1957). In the case of the compound of Example IV, a solution of the compound having an iodine concentration of 4.3% was employed and in the case of the compound of Example V, a solution of the compound having an iodine concentration of 13.3% was employed. The animals were observed immediately following injections and daily throughout a seven day observation period. The LD50 values were calculated by the method of Litchfield and Wilcoxon (J. of Pharmac. and Exptl. Therap. 96:99-113, 1949).

Another series concerns Sprague-Dawley rats. The experiment in a line: Intracisternal Toxicity in Rats. The note with it: two day observation, Example IV at 7.43% iodine, Example V at 13.3% iodine. It counts as in vivo, rat (Sprague-Dawley, Carworth).
Description: as §1
Sprague-Dawley (Carworth) rats were used. In the case of the compound of Example IV, a solution of the compound having an iodine concentration of 7.43% was employed and in the case of the compound of Example V, a solution of the compound having an iodine concentration of 13.3% was employed. The method used was a variation of the procedure outlined by Melartin et al. (Invest. Rad. 5: 13-21, 1970). After dosing, the animals were housed individually and observed for immediate reactions and periodically for a two day observation period. The LD50 values were calculated according to the method of Litchfield and Wilcoxon (J. of Pharmac. and Exptl. Therap. 96:99-115, 1949).

The subject of the next series is dogs. As to the kind of experiment: intravenous pyelographic studies in dogs. Format: in vivo, dog. As to conditions: for visualization of kidneys, ureters and urinary bladder: 140 mg. I/kg., dogs. Here is the method: The compounds of Examples I, II and III were employed in intravenous pyelographic studies carried out in dogs. At a dosage of 140 mg. […] At a dosage of 167 mg.

In series [3] the test system is Swiss Albino mice. As to the kind of experiment: Acute Intravenous Toxicity Studies in Mice. Format: in vivo, mouse (Swiss Albino, Charles River). The note with it: lateral tail vein, iodine concentration 28.2%, pH 7.0-7.2, approximately 1 ml./min., seven day observation. How it is done: as §1
Swiss Albino mice (Charles River) were dosed in the lateral tail vein with aqueous solutions of the above-noted iodinated compounds of Examples I, II and III having an iodine concentration of 28.2% with a pH of 7.0-7.2. The solutions were injected at the rate of approximately 1 ml./min. […] The LD50 values were calculated by the method of Litchfield and Wilcoxon (J. of Pharmac. and Exptl. Therap. 96: 99-113, 1949).

[4] abbreviates: water, read-out: solubility of the product in water.

The term solubility denotes the dissolved amount per volume that the medium holds. As for `CNC(=O)c1c(I)c(NC(=O)N[C@@H](C=O)[C@@H](O)[C@H](O)[C@H](O)CO)c(I)c(C(=O)NC)c1I` [Example V, 5-{3-[2-(D-gluco-2-deoxy-3,4,5,6-tetrahydroxy-1-oxohexyl)]ureido}-2,4,6-tri-iodo-N,N'-dimethylisophthalamide], the solubility in series [1] (water, depending upon the method employed, read-out: aqueous solubility) lay within 27 to 80 mg/mL (≈ 34.2 to 101 mM). The “LD50 Intracerebral (Mice)” value with Swiss Albino mice [2] is recorded as greater than 899 mg. I/kg. body wt. In addition, the “LD50 Intracisternal (Rats)” value with Sprague-Dawley rats is reported as greater than 266 mg. I/kg. body wt.

As to `COc1c(I)cc(I)c(NC(=O)N(C)C[C@H](O)[C@@H](O)[C@H](O)[C@H](O)CO)c1I` [3-[3-methoxy-2,4,6-triiodophenyl]-1-methyl-1-(D-gluco-2,3,4,5,6-pentahydroxyhexyl)urea, reference compound], the solubility in series [1] (insufficiently water-soluble for toxicity testing in aqueous solution, read-out: water solubility) is less than 10 mg/mL.

Take `CNC(=O)c1c(I)c(NC(=O)N(C)C[C@H](O)[C@@H](O)[C@H](O)[C@H](O)CO)c(I)c(C(=O)N(C)C)c1I` [Example I, 3-[3-(N,N-Dimethylcarbamyl)-2,4,6-triiodo-5-(N-methylcarbamyl)phenyl]-1-methyl-1-(D-gluco-2,3,4,5,6-pentahydroxylhexyl)urea]: the “visualization of kidneys, ureters and urinary bladder” value in the series with dogs (five minutes after injection) was “good visualization of kidneys, ureters and urinary bladder”. Also, the solubility in series [1] (setting [4]) was no less than 1000 mg/mL. For the same molecule, in the series on Swiss Albino mice [3], the “LD50 I.V. (Mice)” value was 1,878 mg. I/kg. body wt. In the series with Swiss Albino mice [2], the “LD50 Intracerebral (Mice)” value is 1,500 mg. I/kg. body wt. Moreover, the “LD50 Intracisternal (Rats)” value in the series on Sprague-Dawley rats is 21 mg. I/kg. body wt.

With `CNC(=O)c1c(I)c(NC(C)=O)c(I)c(NC(=O)N[C@@H](C=O)[C@@H](O)[C@H](O)[C@H](O)CO)c1I` [Example IV], the solubility in series [1] (setting [4]) fell in the range of 180 to 200 mg/mL (≈ 228 to 253 mM). Also, the “LD50 Intracerebral (Mice)” value in the series on Swiss Albino mice [2] was greater than 350 mg. I/kg. body wt. Besides, the “LD50 Intracisternal (Rats)” value in the series with Sprague-Dawley rats is 62 mg. I/kg. body wt.

For the molecule `CNC(=O)c1c(I)c(NC(=O)N[C@@H](C=O)[C@@H](O)[C@H](O)[C@H](O)CO)c(I)c(C(=O)N(C)C)c1I` [Example II], the “visualization of kidneys, ureters and urinary bladder” value in the series on dogs (five minutes after injection) is “good visualization of kidneys, ureters and urinary bladder”. Moreover, the solubility in series [1] (setting [4]) was no less than 1000 mg/mL. Also, the “LD50 I.V. (Mice)” value in the series with Swiss Albino mice [3] was 4,817 mg. I/kg. body wt. Moreover, in the series on Swiss Albino mice [2], the “LD50 Intracerebral (Mice)” value was 1,720 mg. I/kg. body wt. The “LD50 Intracisternal (Rats)” value with Sprague-Dawley rats turned out to be 17 mg. I/kg. body wt.

For `CNC(=O)c1c(I)c(NC(=O)N[C@@H](C=O)[C@@H](O)[C@H](O)[C@H](O)CO)c(I)c(N(C)C(C)=O)c1I` [Example III, 5-{3-[2-(D-Gluco-2-deoxy-3,4,5,6-tetrahydroxy-1-oxohexyl)]ureido}-2,4,6-triiodo-N-methyl-3-(N-methylacetamido)-benzamide], in the series with dogs (167 mg. I/kg., five minutes after injection, dog), the “visualization of the kidneys and ureters” value is given as “better visualization of the kidneys with some visualization of the ureters”. For the same molecule, in the series on dogs (167 mg. I/kg., one minute after injection, dog), the “visualization of the kidney” value is “a shadow of the kidney”. Besides, the solubility in series [1] (setting [4]) was no less than 1000 mg/mL. The “LD50 I.V. (Mice)” value with Swiss Albino mice [3] is 6,800 mg. I/kg. body wt. For the same molecule, in the series with Swiss Albino mice [2], the “LD50 Intracerebral (Mice)” value is listed as 1,460 mg. I/kg. body wt. For the same molecule, in the series on Sprague-Dawley rats, the “LD50 Intracisternal (Rats)” value was less than 40 mg. I/kg. body wt.

Consider `CNC(=O)c1c(I)c(NC(=O)N[C@@H](CO)[C@@H](O)[C@H](O)[C@H](O)CO)c(I)c(N(CCO)C(C)=O)c1I` [Example VI, 3-{3-[1-(D-gluco-2-deoxy-1,3,4,5,6-pentahydroxyhexyl)]ureido}-5-[N-(2-hydroxyethyl)acetamido]-2,4,6-triiodo-N-methylbenzamide], for which the solubility in series [1] (water, read-out: water solubility) was roughly 780 mg/mL (≈ 933 mM).
